Experimental data: publication PMC4809600, “The Influence of Chronic Wound Extracts on Inflammatory Cytokine and Histatin Stability” (PLoS ONE, 2016)

How the values were obtained:
[1] = Stability in CWE with protease inhibitor cocktail (PIC), capillary zone electrophoresis; type: in vitro ADME, human; settings: 37°C, CZE, 0 h = 100%; for Percentage intact, CWE + PIC 2h / Percentage intact, CWE + PIC 4h / Percentage intact, CWE + PIC 8h / Percentage intact, CWE + PIC 16h / Percentage intact, CWE + PIC 24h / Percentage intact, CWE + PIC 48h / Percentage intact, CWE + PIC 72h / Percentage intact, CWE + PIC 96h: 1 mg/ml in PBS mixed 1:1 with CWE (1 mg/ml protein, pool of 5 donors) in PBS containing PIC (final 1:140 v/v), ratio to imidazole
Summary of the method: (§1)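 Peptides or cytokines (1 mg/ml stock) mixed 1:1 with PBS or pooled chronic-wound extract (1 mg/ml protein, three pools of five donors), ±protease inhibitor cocktail, at 37 °C for up to 96 h. Analyzed by capillary zone electrophoresis (pH 2.5 phosphate, 200 nm), with peak ratio to imidazole standard relative to 0 h as % intact.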

[2] = Stability in PBS, capillary zone electrophoresis; type: physicochemical; settings: 1 mg/ml in PBS mixed 1:1 with PBS, 37°C, 24 h, CZE, UV 200 nm, ratio to imidazole internal standard, 0 h = 100%
Description: To determine the stability of the different peptides in CWE, histatins and cytokines were dissolved in PBS at 1 mg/ml. Histatins and cytokines were incubated in a 1:1 ratio with (i) PBS, (ii) CWE in PBS, or (iii) CWE in PBS containing PIC, in a total volume of 25 μl. Imidazole (Sigma-Aldrich) was added as an internal standard, with a final concentration of 100 μg/ml. The mixtures were incubated at 37°C, and samples were taken at 0, 24, 48, 72 and 96 h. For histatins containing mixtures, additional samples were taken after 2, 4, 8 and 16 h of incubation.
The samples were analyzed with a BioFocus 2000 capillary zone electrophoresis system (Bio-Rad Laboratories, Hercules, CA, USA) equipped with an uncoated fused-silica capillary of internal diameter 50 μm and a length of 24 cm. Samples were loaded by pressure injection (5 psi/sec). Separation was performed at 10 kV (cathode at the detector side) at 20°C using 0.1 M phosphate buffer (pH 2.5) as electrolyte and monitored continuously at 200 nm. Peaks were quantified with the BioFocus Integrator software. In order to quantify the percentage of intact peptides remaining after incubation with CWE, the ratios of histatins, rhIL-6 or rhCXCL8 to internal standard was set at 100% at 0h, and the ratios at the other incubation time points were related to this.

[3] = Stability in chronic wound extracts (CWE), capillary zone electrophoresis; type: in vitro ADME, human; settings: 37°C, CZE; for Percentage intact, CWE 2h / Percentage intact, CWE 4h / Percentage intact, CWE 8h / Percentage intact, CWE 16h / Percentage intact, CWE 24h / Percentage intact, CWE 48h / Percentage intact, CWE 72h / Percentage intact, CWE 96h: 1 mg/ml in PBS mixed 1:1 with CWE (1 mg/ml protein, pool of 5 donors) in PBS, UV 200 nm, ratio to imidazole
Summary of the method: as §1

Substance: cyclo(DNLPETGGDSHEKRHHGYRRKFHEKHHSHREFPFYGDYGSNYLY) [cHst1]
- Percentage intact, CWE + PIC 2h ([1]; experiment 1 of 3): 89.1635%
- Percentage intact, CWE + PIC 2h ([1]; experiment 2 of 3): 89.9717%
- Percentage intact, CWE + PIC 2h ([1]; experiment 3 of 3): 92.8798%
- Percentage intact, CWE + PIC 4h ([1]; experiment 1 of 3): 81.2396%
- Percentage intact, CWE + PIC 4h ([1]; experiment 2 of 3): 77.3258%
- Percentage intact, CWE + PIC 4h ([1]; experiment 3 of 3): 92.4896%
- Percentage intact, CWE + PIC 8h ([1]; experiment 1 of 3): 74.181%
- Percentage intact, CWE + PIC 8h ([1]; experiment 2 of 3): 79.1445%
- Percentage intact, CWE + PIC 8h ([1]; experiment 3 of 3): 86.6559%
- Percentage intact, CWE + PIC 16h ([1]; experiment 1 of 3): 65.982%
- Percentage intact, CWE + PIC 16h ([1]; experiment 2 of 3): 74.0107%
- Percentage intact, CWE + PIC 16h ([1]; experiment 3 of 3): 77.3109%
- Percentage intact, CWE + PIC 24h ([1]; 24 h, experiment 1 of 3): 76.8799%
- Percentage intact, CWE + PIC 24h ([1]; 24 h, experiment 2 of 3): 76.3765%
- Percentage intact, CWE + PIC 24h ([1]; 24 h, experiment 3 of 3): 70.9573%
- Percentage intact, CWE + PIC 48h ([1]; experiment 1 of 3): 68.226%
- Percentage intact, CWE + PIC 48h ([1]; experiment 2 of 3): 72.203%
- Percentage intact, CWE + PIC 48h ([1]; experiment 3 of 3): 63.9246%
- Percentage intact, CWE + PIC 72h ([1]; experiment 1 of 3): 63.1229%
- Percentage intact, CWE + PIC 72h ([1]; experiment 2 of 3): 65.5213%
- Percentage intact, CWE + PIC 72h ([1]; experiment 3 of 3): 53.9233%
- Percentage intact, CWE + PIC 96h ([1]; experiment 1 of 3): 57.543%
- Percentage intact, CWE + PIC 96h ([1]; experiment 2 of 3): 57.4907%
- Percentage intact, CWE + PIC 96h ([1]; experiment 3 of 3): 51.0863%
- remaining at 24 h, 0.5 mg/ml ([1]; human, with protease inhibitor cocktail (PIC), CWE with protease inhibitor cocktail (final 1:140 v/v), 24 h, mean of 3 independent experiments, read-out: Remaining fraction of intact peptide after 24 h in CWE + PIC): 74%
- Percentage intact, PBS 24h ([2]; experiment 1 of 3): 91.5758%
- Percentage intact, PBS 24h ([2]; experiment 2 of 3): 95.461%
- Percentage intact, PBS 24h ([2]; experiment 3 of 3): 100.575%
- Percentage intact, CWE 2h ([3]; 0 h = 100%, experiment 1 of 3): 94.125%
- Percentage intact, CWE 2h ([3]; 0 h = 100%, experiment 2 of 3): 97.8952%
- Percentage intact, CWE 2h ([3]; 0 h = 100%, experiment 3 of 3): 100%
- Percentage intact, CWE 4h ([3]; 0 h = 100%, experiment 1 of 3): 84.7219%
- Percentage intact, CWE 4h ([3]; 0 h = 100%, experiment 2 of 3): 88.931%
- Percentage intact, CWE 4h ([3]; 0 h = 100%, experiment 3 of 3): 83.8816%
- Percentage intact, CWE 8h ([3]; 8 h, 0 h = 100%, experiment 1 of 3): 81.3497%
- Percentage intact, CWE 8h ([3]; 8 h, 0 h = 100%, experiment 2 of 3): 83.9314%
- Percentage intact, CWE 8h ([3]; 8 h, 0 h = 100%, experiment 3 of 3): 78.1579%
- Percentage intact, CWE 16h ([3]; 0 h = 100%, experiment 1 of 3): 71.6467%
- Percentage intact, CWE 16h ([3]; 0 h = 100%, experiment 2 of 3): 74.8159%
- Percentage intact, CWE 16h ([3]; 0 h = 100%, experiment 3 of 3): 54.5266%
- Percentage intact, CWE 24h ([3]; 24 h, 0 h = 100%, experiment 1 of 3): 54.5627%
- Percentage intact, CWE 24h ([3]; 24 h, 0 h = 100%, experiment 2 of 3): 58.7294%
- Percentage intact, CWE 24h ([3]; 24 h, 0 h = 100%, experiment 3 of 3): 52.1934%
- Percentage intact, CWE 48h ([3]; 0 h = 100%, experiment 1 of 3): 29.9428%
- Percentage intact, CWE 48h ([3]; 0 h = 100%, experiment 2 of 3): 34.7264%
- Percentage intact, CWE 48h ([3]; 0 h = 100%, experiment 3 of 3): 26.5123%
- Percentage intact, CWE 72h ([3]; 0 h = 100%, experiment 1 of 3): 20.4492%
- Percentage intact, CWE 72h ([3]; 0 h = 100%, experiment 2 of 3): 21.8694%
- Percentage intact, CWE 72h ([3]; 0 h = 100%, experiment 3 of 3): 20.7179%
- Percentage intact, CWE 96h ([3]; 0 h = 100%, experiment 1 of 3): 15.3884%
- Percentage intact, CWE 96h ([3]; 0 h = 100%, experiment 2 of 3): 19.0259%
- Percentage intact, CWE 96h ([3]; 0 h = 100%, experiment 3 of 3): 11.1869%
- remaining at 8 h, 0.5 mg/ml ([3]; human, chronic wound extracts (CWE), 1 mg/ml in PBS mixed 1:1 with CWE (1 mg/ml protein, pools of 5 donors), 8 h, 0 h = 100%, mean of 3 independent experiments, read-out: Original amount of peptide remaining intact after 8 h in CWE): 81%
- remaining at 24 h, 0.5 mg/ml ([3]; human, chronic wound extracts (CWE), 1 mg/ml in PBS mixed 1:1 with CWE (1 mg/ml protein, pools of 5 donors), 24 h, 0 h = 100%, mean of 3 independent experiments, read-out: Original amount of peptide remaining intact after 24 h in CWE): 55%
- metabolised at 8 h, 0.5 mg/ml ([3]; human, chronic wound extracts (CWE), incubation with chronic wound extracts, 8 h, read-out: Breakdown (degradation) in CWE in 8 h): ~20%
